PubChem BioAssay AID1259407 (Chemical Carcinogenesis Research Information System (CCRIS), 2018)
Active and inactive are the calls of the source. No rule for the calls is given here.

Tested on: CCRIS mutagenicity, Ames/micronucleus/aberration tests
Assay: CCRIS mutagenicity studies
[1] = Test System: AMES SALMONELLA TYPHIMURIUM, Strain/Indicator: TA98, Metabolic Activation: HAMSTER, LIVER, S-9, AROCLOR 1254 (10%), Method: PREINCUBATION
[2] = Test System: AMES SALMONELLA TYPHIMURIUM, Strain/Indicator: TA98, Metabolic Activation: NONE, Method: PREINCUBATION
[3] = Test System: AMES SALMONELLA TYPHIMURIUM, Strain/Indicator: TA98, Metabolic Activation: RAT, LIVER, S-9, AROCLOR 1254 (10%), Method: PREINCUBATION
[4] = Test System: AMES SALMONELLA TYPHIMURIUM, Strain/Indicator: TA100, Metabolic Activation: HAMSTER, LIVER, S-9, AROCLOR 1254 (10%), Method: PREINCUBATION
[5] = Test System: AMES SALMONELLA TYPHIMURIUM, Strain/Indicator: TA100, Metabolic Activation: NONE, Method: PREINCUBATION
[6] = Test System: AMES SALMONELLA TYPHIMURIUM, Strain/Indicator: TA100, Metabolic Activation: RAT, LIVER, S-9, AROCLOR 1254 (10%), Method: PREINCUBATION
[7] = Test System: AMES SALMONELLA TYPHIMURIUM, Strain/Indicator: TA1535, Metabolic Activation: HAMSTER, LIVER, S-9, AROCLOR 1254 (10%), Method: PREINCUBATION
[8] = Test System: AMES SALMONELLA TYPHIMURIUM, Strain/Indicator: TA1535, Metabolic Activation: NONE, Method: PREINCUBATION
[9] = Test System: AMES SALMONELLA TYPHIMURIUM, Strain/Indicator: TA1535, Metabolic Activation: RAT, LIVER, S-9, AROCLOR 1254 (10%), Method: PREINCUBATION
[10] = Test System: AMES SALMONELLA TYPHIMURIUM, Strain/Indicator: TA1537, Metabolic Activation: NONE, Method: PREINCUBATION
[11] = Test System: AMES SALMONELLA TYPHIMURIUM, Strain/Indicator: TA100, Metabolic Activation: NONE, Method: STANDARD PLATE
[12] = Test System: AMES SALMONELLA TYPHIMURIUM, Strain/Indicator: TA1535, Metabolic Activation: NONE, Method: STANDARD PLATE

CC(C)CC(C)N (configuration not stated)
mutagenic call [1]: inactive; negative | mutagenic call [2]: inactive; negative | mutagenic call [3]: inactive; negative | mutagenic call [4]: inactive; negative | mutagenic call [5]: inactive; negative | mutagenic call [6]: inactive; negative | mutagenic call [7]: inactive; negative | mutagenic call [8]: inactive; negative | mutagenic call [9]: inactive; negative | mutagenic call (Test System: AMES SALMONELLA TYPHIMURIUM, Strain/Indicator: TA1537, Metabolic Activation: HAMSTER, LIVER, S-9, AROCLOR 1254 (10%), Method: PREINCUBATION): inactive; negative | mutagenic call [10]: inactive; negative | mutagenic call (Test System: AMES SALMONELLA TYPHIMURIUM, Strain/Indicator: TA1537, Metabolic Activation: RAT, LIVER, S-9, AROCLOR 1254 (10%), Method: PREINCUBATION): inactive; negative

C[n+]1cccc(-c2ccc[n+](C)c2)c1
mutagenic call (Test System: AMES SALMONELLA TYPHIMURIUM, Strain/Indicator: TA97, Metabolic Activation: RAT, LIVER, S-9, PHENOBARBITAL, Method: STANDARD PLATE): inactive; negative | mutagenic call (Test System: AMES SALMONELLA TYPHIMURIUM, Strain/Indicator: TA98, Metabolic Activation: RAT, LIVER, S-9, PHENOBARBITAL, Method: STANDARD PLATE): inactive; negative | mutagenic call (Test System: AMES SALMONELLA TYPHIMURIUM, Strain/Indicator: TA100, Metabolic Activation: RAT, LIVER, S-9, PHENOBARBITAL, Method: STANDARD PLATE): active; positive | mutagenic call (Test System: AMES SALMONELLA TYPHIMURIUM, Strain/Indicator: TA1535, Metabolic Activation: RAT, LIVER, S-9, PHENOBARBITAL, Method: STANDARD PLATE): inactive; negative | mutagenic call (Test System: AMES SALMONELLA TYPHIMURIUM, Strain/Indicator: TA1537, Metabolic Activation: RAT, LIVER, S-9, PHENOBARBITAL, Method: STANDARD PLATE): inactive; negative | mutagenic call (Test System: AMES SALMONELLA TYPHIMURIUM, Strain/Indicator: TA1538, Metabolic Activation: RAT, LIVER, S-9, PHENOBARBITAL, Method: STANDARD PLATE): inactive; negative

O=C(O)C(=O)Nc1cccc(-c2nn[nH]n2)c1
mutagenic call (Test System: AMES SALMONELLA TYPHIMURIUM, Strain/Indicator: TA98, Metabolic Activation: NONE, Method: STANDARD PLATE): inactive; negative | mutagenic call (Test System: AMES SALMONELLA TYPHIMURIUM, Strain/Indicator: TA98, Metabolic Activation: RAT, LIVER, S-9, PHENOBARBITAL AND 5,6-BENZOFLAVONE, Method: STANDARD PLATE): inactive; negative | mutagenic call [11]: inactive; negative | mutagenic call (Test System: AMES SALMONELLA TYPHIMURIUM, Strain/Indicator: TA100, Metabolic Activation: RAT, LIVER, S-9, PHENOBARBITAL AND 5,6-BENZOFLAVONE, Method: STANDARD PLATE): inactive; negative | mutagenic call [12]: inactive; negative | mutagenic call (Test System: AMES SALMONELLA TYPHIMURIUM, Strain/Indicator: TA1535, Metabolic Activation: RAT, LIVER, S-9, PHENOBARBITAL AND 5,6-BENZOFLAVONE, Method: STANDARD PLATE): inactive; negative | mutagenic call (Test System: AMES SALMONELLA TYPHIMURIUM, Strain/Indicator: TA1537, Metabolic Activation: NONE, Method: STANDARD PLATE): inactive; negative | mutagenic call (Test System: AMES SALMONELLA TYPHIMURIUM, Strain/Indicator: TA1537, Metabolic Activation: RAT, LIVER, S-9, PHENOBARBITAL AND 5,6-BENZOFLAVONE, Method: STANDARD PLATE): inactive; negative | mutagenic call (Test System: E. COLI, Strain/Indicator: WP2 UVRA, Metabolic Activation: NONE, Method: STANDARD PLATE): inactive; negative

OCC(Cl)CCl (configuration not stated)
mutagenic call (Test System: AMES SALMONELLA TYPHIMURIUM, Strain/Indicator: TA97, Metabolic Activation: HAMSTER, LIVER, S-9, AROCLOR 1254 (10%), Method: PREINCUBATION): active; positive | mutagenic call (Test System: AMES SALMONELLA TYPHIMURIUM, Strain/Indicator: TA97, Metabolic Activation: NONE, Method: PREINCUBATION): active; positive | mutagenic call (Test System: AMES SALMONELLA TYPHIMURIUM, Strain/Indicator: TA97, Metabolic Activation: RAT, LIVER, S-9, AROCLOR 1254 (10%), Method: PREINCUBATION): active; positive | mutagenic call [1]: active; positive | mutagenic call [3]: active; positive | mutagenic call [4]: active; positive | mutagenic call [5]: active; positive | mutagenic call [11]: active; positive | mutagenic call [6]: active; positive | mutagenic call (Test System: AMES SALMONELLA TYPHIMURIUM, Strain/Indicator: TA100, Metabolic Activation: RAT, LIVER, S-9, AROCLOR 1254, Method: STANDARD PLATE): active; positive | mutagenic call (Test System: AMES SALMONELLA TYPHIMURIUM, Strain/Indicator: TA100, Metabolic Activation: RAT, LIVER, S-9, KANECHLOR 500, Method: PREINCUBATION): active; positive | mutagenic call [7]: active; positive | mutagenic call [8]: active; positive | mutagenic call [12]: active; positive | mutagenic call [9]: active; positive | mutagenic call (Test System: AMES SALMONELLA TYPHIMURIUM, Strain/Indicator: TA1535, Metabolic Activation: RAT, LIVER, S-9, AROCLOR 1254, Method: STANDARD PLATE): active; positive

Oc1ccc(Cc2ccccc2O)cc1
mutagenic call [2]: inactive; negative | mutagenic call (Test System: AMES SALMONELLA TYPHIMURIUM, Strain/Indicator: TA98, Metabolic Activation: RAT LIVER S-9, PHENOBARBITAL AND BETA-NAPHTHOFLAVONE, Method: PREINCUBATION): inactive; negative | mutagenic call [5]: inactive; negative | mutagenic call (Test System: AMES SALMONELLA TYPHIMURIUM, Strain/Indicator: TA100, Metabolic Activation: RAT LIVER S-9, PHENOBARBITAL AND BETA-NAPHTHOFLAVONE, Method: PREINCUBATION): inactive; negative | mutagenic call [8]: inactive; negative | mutagenic call (Test System: AMES SALMONELLA TYPHIMURIUM, Strain/Indicator: TA1535, Metabolic Activation: RAT LIVER S-9, PHENOBARBITAL AND BETA-NAPHTHOFLAVONE, Method: PREINCUBATION): inactive; negative | mutagenic call [10]: inactive; negative | mutagenic call (Test System: AMES SALMONELLA TYPHIMURIUM, Strain/Indicator: TA1537, Metabolic Activation: RAT LIVER S-9, PHENOBARBITAL AND BETA-NAPHTHOFLAVONE, Method: PREINCUBATION): inactive; negative | mutagenic call (Test System: E.COLI, Strain/Indicator: WP2UVRA/PKM101, Metabolic Activation: NONE, Method: PREINCUBATION): inactive; negative | mutagenic call (Test System: E.COLI, Strain/Indicator: WP2UVRA/PKM101, Metabolic Activation: RAT LIVER S-9, PHENOBARBITAL AND BETA-NAPHTHOFLAVONE, Method: PREINCUBATION): inactive; negative

C[N+](C)=c1ccc2nc3ccc(N)cc3sc-2c1
mutagenic call (Test System: Ames Salmonella typhimurium, Strain/Indicator: TA98, Metabolic Activation: Rat, Liver, S-9, Aroclor 1254 (10%), Method: Preincubation): active; positive | mutagenic call (Test System: Ames Salmonella typhimurium, Strain/Indicator: TA98, Strain/Sex: TA98, Metabolic Activation: None, Method: Preincubation): active; positive | mutagenic call (Test System: Ames Salmonella typhimurium, Strain/Indicator: TA100, Metabolic Activation: None, Method: Preincubation): active; positive | mutagenic call (Test System: Ames Salmonella typhimurium, Strain/Indicator: TA100, Metabolic Activation: Rat, Liver, S-9, Aroclor 1254 (10%), Method: Preincubation): active; positive | mutagenic call (Test System: E. coli, Strain/Indicator: WPM uvrA/pKM101, Metabolic Activation: None, Method: Preincubation): active; positive | mutagenic call (Test System: E. coli, Strain/Indicator: WPM uvrA/pKM101, Metabolic Activation: Rat, Liver, S-9, Aroclor 1254 (10%), Method: Preincubation): active; positive

CC(=O)OCc1ccccc1[N+](=O)[O-]
mutagenic call [2]: inactive; negative | mutagenic call [5]: inactive; negative | mutagenic call (Test System: AMES SALMONELLA TYPHIMURIUM, Strain/Indicator: TA100, Metabolic Activation: RAT, LIVER, S-9, AROCLOR 1254, Method: PREINCUBATION): inactive; negative
